# According to US8765730B2 (Hoffmann-La Roche Inc, priority 2010, dated 2014):
# Biological target: T1, human GPBAR1 receptor (Homo sapiens, UniProt Q8TDU6)
# T1 construct: expressed in transfected cells
# T1 sequence (Q8TDU6 1-330): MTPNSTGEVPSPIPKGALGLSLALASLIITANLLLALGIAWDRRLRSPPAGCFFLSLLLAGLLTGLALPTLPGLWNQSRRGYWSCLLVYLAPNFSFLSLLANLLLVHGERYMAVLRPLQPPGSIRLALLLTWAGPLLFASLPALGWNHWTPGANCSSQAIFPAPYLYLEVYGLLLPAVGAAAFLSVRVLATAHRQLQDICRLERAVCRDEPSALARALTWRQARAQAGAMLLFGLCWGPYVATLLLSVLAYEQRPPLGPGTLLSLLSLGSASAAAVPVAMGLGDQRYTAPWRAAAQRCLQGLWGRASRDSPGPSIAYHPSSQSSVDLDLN
# Experiment: functional cAMP assay in CHO-dhfr(minus) cells expressing human GPBAR1 receptors
# Assay type: cell-based
# Details: human EC50, functional cAMP assay, 30 min at 30° C.
# Summary of the method: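 Agonist cAMP read-out: stable GPBAR1 CHO-dhfr− clone, 30 min compound exposure at 30° C following 30 min IBMX (1 mM) preincubation in Krebs Ringer bicarbonate. Time-resolved energy-transfer detection gives EC50; parental CHO cells serve as counter-screen.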
row,Compound,EC50
1,"Cn1cc(/C(CC(c2ccc(-c3ccc(C(=O)O)c(F)c3)cc2)c2ccc(Cl)cc2Cl)=N/O)ccc1=O (stereo not shown) [Example 473, 4′-[1-(2,4-Dichloro-phenyl)-3-[(E)-hydroxyimino]-3-(1-methyl-6-oxo-1,6-dihydro-pyridin-3-yl)-propyl]-3-fluoro-biphenyl-4-carboxylic acid]",29 nM
2,"Cc1cc(Cl)ccc1C(C/C(=N\O)c1ccc(=O)n(C)c1)c1ccc(S(C)(=O)=O)cc1 (stereo not shown) [Example 331, (E)-5-(3-(4-chloro-2-methylphenyl)-1-(hydroxyimino)-3-(4-(methylsulfonyl)phenyl)propyl)-1-methylpyridin-2(1H)-one]",38 nM
3,"Cc1ccccc1[C@H](C/C(=N\O)c1ccnc(C(F)(F)F)c1)c1ccc(-c2ccc(C(=O)O)cc2)cc1 [Example 291, 4′-[(R)-3-[(E)-Hydroxyimino]-1-o-tolyl-3-(2-trifluoromethyl-pyridin-4-yl)-propyl]-biphenyl-4-carboxylic acid]",365 nM
4,"Cc1ccccc1[C@H](C/C(=N\O)c1ccc(=O)n(C)c1)c1ccc(C2CCN(C(=O)OC(C)(C)C)CC2)cc1 [Example 506, (R,E)-tert-Butyl 4-(4-(3-(hydroxyimino)-3-(1-methyl-6-oxo-1,6-dihydropyridin-3-yl)-1-o-tolylpropyl)phenyl)piperidine-1-carboxylate]",634 nM
5,"O/N=C(\CC1c2ccccc2CCc2ccccc21)c1ccncc1 [Example 60, (E)-2-(10,11-Dihydro-5H-dibenzo[a,d]cyclohepten-5-yl)-1-pyridin-4-yl-ethanone oxime]",810 nM
6,"Cc1cc(C(=O)O)ccc1-c1ccc(C(C/C(=N\O)c2ccc(=O)n(C)c2)c2ccc(Cl)cc2Cl)cc1 (single isomer, unassigned) [Example 477, 4′-[(−)-1-(2,4-Dichloro-phenyl)-3-[(E)-hydroxyimino]-3-(1-methyl-6-oxo-1,6-dihydro-pyridin-3-yl)-propyl]-2-methyl-biphenyl-4-carboxylic acid]",111 nM
7,"Cc1ccccc1[C@H](C/C(=N/O)c1ccc(=O)n(C)c1)c1ccc(C#N)cc1 [Example 499, (R,Z)-4-(3-(hydroxyimino)-3-(1-methyl-6-oxo-1,6-dihydropyridin-3-yl)-1-o-tolylpropyl)benzonitrile]",4500 nM
8,"O/N=C(\CC(c1ccccc1)c1ccc(-c2cncnc2)cc1)c1ccncc1 (stereo not shown) [Example 22, (E)-3-Phenyl-1-pyridin-4-yl-3-(4-pyrimidin-5-yl-phenyl)-propan-1-one oxime]",33 nM
9,"O=C(O)c1cccc(-c2ccc(C(C/C(=N\O)c3ccncc3)c3ccccc3)cc2)c1 (stereo not shown) [Example 76, 4′-{3-[(E)-Hydroxyimino]-1-phenyl-3-pyridin-4-yl-propyl}-biphenyl-3-carboxylic acid]",490 nM
10,"Cc1cc(/C(CC(c2ccc(N3CCOCC3)nc2)c2ccc(F)cc2F)=N/O)ccn1 (stereo not shown) [Example 443, 3-(2,4-Difluoro-phenyl)-1-(2-methyl-pyridin-4-yl)-3-(6-morpholin-4-yl-pyridin-3-yl)-propan-1-one oxime]",98 nM
11,"Cc1cc(C(CC(c2ccc(CCCO)cc2)c2ccccc2C)=NO)ccn1 (racemic) [Example 88, 3-[4-(3-Hydroxy-propyl)-phenyl]-1-(2-methyl-pyridin-4-yl)-3-o-tolyl-propan-1-one oxime]",12 nM
12,"CCOCCn1cc(/C(CC(c2ccc(S(C)(=O)=O)cc2)c2ccc(Cl)cc2C)=N/O)ccc1=O (stereo not shown) [Example 340, (E)-5-(3-(4-Chloro-2-methylphenyl)-1-(hydroxyimino)-3-(4-(methylsulfonyl)phenyl)-propyl)-1-(2-ethoxyethyl)pyridin-2(1H)-one]",221 nM
13,"Cc1cc(/C(C[C@H](c2ccc(-c3cn(C)nn3)cc2)c2ccccc2C)=N/O)ccn1 [Example 424, (−)-1-(2-Methyl-pyridin-4-yl)-3-[4-(1-methyl-1H-[1,2,3]triazol-4-yl)-phenyl]-3-o-tolyl-propan-1-one oxime]",1 nM
14,"Cc1cc(/C(C[C@H](c2ccc(C3CCN(S(N)(=O)=O)CC3)cc2)c2ccc(Cl)cc2C)=N/O)ccn1 [Example 480, (R,E)-4-(4-(1-(4-Chloro-2-methylphenyl)-3-(hydroxyimino)-3-(2-methylpyridin-4-yl)propyl)phenyl)piperidine-1-sulfonamide]",20 nM
15,"Cc1cc(/C(C[C@H](c2ccccc2)c2ccccc2C)=N/O)ccn1 [Example 368, (R,E)-1-(2-Methylpyridin-4-yl)-3-phenyl-3-o-tolylpropan-1-one oxime]",18 nM
16,"Cc1cc(Cl)ccc1C(C/C(=N\O)c1ccc(=O)n(C)c1)c1ccc(Oc2ccc(F)c(C(=O)O)c2)cc1 (stereo not shown) [Example 348, 5-{4-[1-(4-Chloro-2-methyl-phenyl)-3-[(E)-hydroxyimino]-3-(1-methyl-6-oxo-1,6-dihydro-pyridin-3-yl)-propyl]-phenoxy}-2-fluoro-benzoic acid]",71 nM

row,Compound,EC50
1,"Cc1cc(/C(CC(c2ccc(C(=O)NC3CCS(=O)(=O)CC3)cc2)c2ccc(F)cc2F)=N/O)ccn1 (stereo not shown) [Example 440, 4-[1-(2,4-Difluoro-phenyl)-3-[(E)-hydroxyimino]-3-(2-methyl-pyridin-4-yl)-propyl]-N-(1,1-dioxo-hexahydro-1λ^6-thiopyran-4-yl)-benzamide]",148 nM
2,"Cc1cc(/C(C[C@H](c2ccc([C@H]3CC[C@@H](C(=O)O)CC3)cc2)c2ccc(Cl)cc2C)=N/O)ccn1 [Example 505, cis-4-(4-((R,E)-1-(4-chloro-2-methylphenyl)-3-(hydroxyimino)-3-(2-methylpyridin-4-yl)propyl)phenyl)cyclohexanecarboxylic acid]",13 nM
3,"Cn1cc(/C(CC(c2cccc(S(C)(=O)=O)c2)c2ccc(Cl)cc2F)=N/O)ccc1=O (stereo not shown) [Example 315, (E)-5-(3-(4-Chloro-2-fluorophenyl)-1-(hydroxyimino)-3-(3-(methylsulfonyl)phenyl)propyl)-1-methylpyridin-2(1H)-one]",647 nM
4,"Cc1cc(/C(C[C@H](c2ccc(C3CCNCC3)cc2)c2ccc(Cl)cc2C)=N/O)ccn1 [Example 388, (R,E)-3-(4-chloro-2-methylphenyl)-1-(2-methylpyridin-4-yl)-3-(4-(piperidin-4-yl)phenyl)propan-1-one oxime]",172 nM
5,"Cc1cc(/C(C[C@@H](c2ccc(N3CCOCC3)cc2)c2ccccc2C)=N/O)ccn1 [Example 381, (S,E)-1-(2-Methylpyridin-4-yl)-3-(4-morpholinophenyl)-3-o-tolylpropan-1-one oxime]",50 nM
6,"Cn1cc(/C(CC(c2ccc(-c3ccc(C(=O)O)c(F)c3)cc2)c2ccc(Cl)cc2Cl)=N/O)ccc1=O (single isomer, unassigned) [Example 474, 4′-[(−)-1-(2,4-Dichloro-phenyl)-3-[(E)-hydroxyimino]-3-(1-methyl-6-oxo-1,6-dihydro-pyridin-3-yl)-propyl]-3-fluoro-biphenyl-4-carboxylic acid]",43 nM
7,"Cc1cc(Cl)ccc1[C@@H](C/C(=N\O)c1ccc(=O)n(C)c1)c1ccc(-c2ccc(S(N)(=O)=O)cc2)cc1 (single isomer, unassigned) [Example 414, (+)-4′-[1-(4-Chloro-2-methyl-phenyl)-3-[(E)-hydroxyimino]-3-(1-methyl-6-oxo-1,6-dihydro-pyridin-3-yl)-propyl]-biphenyl-4-sulfonic acid amide]",18 nM
8,"Cc1cc(/C(CC(c2ccccc2)c2ccccn2)=N/O)cc(C)n1 (stereo not shown) [Example 68, (E)-1-(2,6-Dimethyl-pyridin-4-yl)-3-phenyl-3-pyridin-2-yl-propan-1-one oxime]",341 nM
9,"Cc1cnc(F)cc1C(CC(c1ccc(Br)cc1)c1ccccc1C)=NO (racemic) [Example 124, 3-(4-Bromo-phenyl)-1-(2-fluoro-5-methyl-pyridin-4-yl)-3-o-tolyl-propan-1-one oxime]",17 nM
10,Cc1cc(/C(C[C@H](c2ccc(-c3ncco3)cc2)c2ccccc2C)=N/O)ccn1 [Example 423],2 nM
11,"Cn1cc(/C(CC(c2cccc(C(=O)NCCO)c2)c2ccc(Cl)cc2F)=N/O)ccc1=O (stereo not shown) [Example 320, (E)-3-(1-(4-Chloro-2-fluorophenyl)-3-(hydroxyimino)-3-(1-methyl-6-oxo-1,6-dihydro-pyridin-3-yl)propyl)-N-(2-hydroxyethyl)benzamide]",3370 nM
12,"Cn1cc(/C(C[C@H](c2ccc(-c3ccc(C(=O)O)c(F)c3)cc2)c2ccc(Cl)cc2F)=N/O)ccc1=O (single isomer, unassigned) [Example 463, 4′-[(−)-1-(4-Chloro-2-fluoro-phenyl)-3-[(E)-hydroxyimino]-3-(1-methyl-6-oxo-1,6-dihydro-pyridin-3-yl)-propyl]-3-fluoro-biphenyl-4-carboxylic acid]",154 nM
13,"Cc1cc(/C(CC(c2ccc(C(=O)NC[C@@H](C)O)cc2)c2ccc(F)cc2F)=N/O)ccn1 (stereo partly drawn) [Example 434, 4-[1-(2,4-Difluoro-phenyl)-3-[(E)-hydroxyimino]-3-(2-methyl-pyridin-4-yl)-propyl]-N—((R)-2-hydroxy-propyl)-benzamide]",49 nM
14,"Cn1cc(/C(CC(c2ccc(C(=O)N[C@H]3CC[C@H](C(=O)O)CC3)c(F)c2)c2ccccc2Cl)=N/O)ccc1=O (stereo partly drawn) [Example 231, Trans-4-{4-[1-(2-Chloro-phenyl)-3-[(E)-hydroxyimino]-3-(1-methyl-6-oxo-1,6-dihydro-pyridin-3-yl)-propyl]-2-fluoro-benzoylamino}-cyclohexanecarboxylic acid]",283 nM
15,"Cc1cc(/C(C[C@H](c2ccc(C3=CC(=O)NCC3)cc2)c2ccccc2C)=N/O)ccn1 [Example 377, (R,E)-4-(4-(3-(Hydroxyimino)-3-(2-methylpyridin-4-yl)-1-o-tolylpropyl)phenyl)-5,6-dihydropyridin-2(1H)-one]",12 nM
